Measured values taken from ChEMBL document CHEMBL5113477, “Membrane acting Povarov-Doebner derived compounds potently disperse preformed multidrug resistant Gram-positive bacterial biofilms” (Eur J Med Chem, 2022).
Values after ≈ are worked out from the molar mass of the structure shown. Active and inactive are the calls of the source. The rule behind the calls is not given here.

Assays:
Staphylococcus aureus [1] = experiment: Inhibition of biofilm formation in methicillin-resistant Staphylococcus aureus ATCC 33592 in TSB broth at 0.0078 to 4 ug/ml incubated for 48 hrs in presence of glucose by crystal violet staining based analysis; assay type: functional, organism-based; settings: dose 0.0078-4 µg/ml
Enterococcus faecium [2] = experiment: Synergistic antibiofilm activity against vancomycin-resistant Enterococcus faecium ATCC 700221 in TSB broth assessed as dispersal of glucose-induced biofilm by measuring Nitroxoline MBEC preincubated with glucose for 48 hrs followed by compound addition and measured after 24 hrs by crystal violet staining based checkerboard assay; assay type: functional
Staphylococcus aureus [3] = experiment: Antibiofilm activity against methicillin-resistant Staphylococcus aureus USA 300 in TSB broth assessed as dispersal of glucose-induced biofilm at 8 to 16 ug/ml preincubated with glucose for 48 hrs followed by compound addition and measured after 24 hrs by crystal violet staining based analysis; assay type: functional; settings: dose 8-16 µg/ml, at 8 to 16 µg/mL
Enterococcus faecalis [4] = experiment: Synergistic antibiofilm activity against vancomycin-resistant Enterococcus faecalis ATCC 51575 in TSB broth assessed as dispersal of glucose-induced biofilm by measuring Bithionol MBEC preincubated with glucose for 48 hrs followed by compound addition and measured after 24 hrs by crystal violet staining based checkerboard assay; assay type: functional
Enterococcus faecium [5] = experiment: Inhibition of biofilm formation in vancomycin-resistant Enterococcus faecium ATCC 700221 in TSB broth at 0.0078 to 4 ug/ml incubated for 48 hrs in presence of glucose by crystal violet staining based analysis; assay type: functional, organism-based; settings: dose 0.0078-4 µg/ml
Staphylococcus aureus [6] = experiment: Synergistic antibiofilm activity against methicillin-resistant Staphylococcus aureus USA 300 in TSB broth assessed as dispersal of glucose-induced biofilm preincubated with glucose for 48 hrs followed by compound addition and further incubated for 24 hrs in presence of Nitroxoline by crystal violet staining based checkerboard assay; assay type: functional
Staphylococcus aureus [7] = experiment: Antibacterial activity against methicillin-resistant Staphylococcus aureus USA 300 (ARLG 1567) assessed as reduction in visible bacterial growth incubated for 18 to 20 hrs by CLSI based broth microdilution analysis; assay type: functional; settings: time 18-20 hrs
Staphylococcus aureus [8] = experiment: Antibacterial activity against methicillin-resistant Staphylococcus aureus USA 300 (ARLG 1570) assessed as reduction in visible bacterial growth incubated for 18 to 20 hrs by CLSI based broth microdilution analysis; assay type: functional; settings: time 18-20 hrs
Staphylococcus aureus [9] = experiment: Antibiofilm activity against methicillin-resistant Staphylococcus aureus USA 300 in TSB broth assessed as dispersal of glucose-induced biofilm preincubated with glucose for 48 hrs followed by compound addition and measured after 24 hrs by crystal violet staining based analysis; assay type: functional
Staphylococcus aureus [10] = experiment: Antibacterial activity against methicillin-resistant Staphylococcus aureus USA 300 (ARLG 1665) assessed as reduction in visible bacterial growth incubated for 18 to 20 hrs by CLSI based broth microdilution analysis; assay type: functional; settings: time 18-20 hrs
Staphylococcus aureus [11] = experiment: Synergistic antibiofilm activity against methicillin-resistant Staphylococcus aureus USA 300 in TSB broth assessed as dispersal of glucose-induced biofilm preincubated with glucose for 48 hrs followed by compound addition and further incubated for 24 hrs in presence of Bithionol by crystal violet staining based checkerboard assay; assay type: functional
Staphylococcus aureus [12] = experiment: Antibacterial activity against methicillin-resistant Staphylococcus aureus USA 300 (ARLG 1644) assessed as reduction in visible bacterial growth incubated for 18 to 20 hrs by CLSI based broth microdilution analysis; assay type: functional; settings: time 18-20 hrs
Staphylococcus aureus [13] = experiment: Synergistic antibiofilm activity against methicillin-resistant Staphylococcus aureus USA 300 in TSB broth assessed as dispersal of glucose-induced biofilm at 1 ug/ml preincubated with glucose for 48 hrs followed by compound addition and further incubated for 24 hrs in presence of 1 ug/ml Bithionol and AgNO3 by crystal violet staining based analysis; assay type: functional; settings: dose 1 µg/ml
Staphylococcus aureus [14] = experiment: Synergistic antibiofilm activity against methicillin-resistant Staphylococcus aureus USA 300 in TSB broth assessed as dispersal of glucose-induced biofilm by measuring fractional inhibitory concentration index preincubated with glucose for 48 hrs followed by compound addition and further incubated for 24 hrs in presence of Nitroxoline by crystal violet staining based checkerboard assay; assay type: functional
Staphylococcus aureus [15] = experiment: Synergistic antibiofilm activity against methicillin-resistant Staphylococcus aureus USA 300 in TSB broth assessed as dispersal of glucose-induced biofilm by measuring Bithionol MBEC preincubated with glucose for 48 hrs followed by compound addition and measured after 24 hrs by crystal violet staining based checkerboard assay; assay type: functional
Enterococcus faecalis [16] = experiment: Synergistic antibiofilm activity against vancomycin-resistant Enterococcus faecalis ATCC 51575 in TSB broth assessed as dispersal of glucose-induced biofilm preincubated with glucose for 48 hrs followed by compound addition and further incubated for 24 hrs in presence of Nitroxoline by crystal violet staining based checkerboard assay; assay type: functional
Enterococcus faecium [17] = experiment: Synergistic antibiofilm activity against vancomycin-resistant Enterococcus faecium ATCC 700221 in TSB broth assessed as dispersal of glucose-induced biofilm preincubated with glucose for 48 hrs followed by compound addition and further incubated for 24 hrs in presence of Nitroxoline by crystal violet staining based checkerboard assay; assay type: functional
Staphylococcus aureus [18] = experiment: Synergistic antibiofilm activity against methicillin-resistant Staphylococcus aureus USA 300 in TSB broth assessed as dispersal of glucose-induced biofilm at 2 ug/ml preincubated with glucose for 48 hrs followed by compound addition and further incubated for 24 hrs in presence of 0.5 ug/ml Bithionol and AgNO3 by crystal violet staining based analysis; assay type: functional; settings: dose 2 µg/ml
Cell membrane = experiment: Induction of membrane permeabilization in Staphylococcus aureus ATCC 25923 measured every 3 mins for 180 mins by sytox green dye based flow cytometry analysis; assay type: subcellular; settings: dose 0.5-4 µg/ml, DDE = dose-dependent effect
Staphylococcus aureus [19] = experiment: Bactericidal activity against exponential phase of methicillin-resistant Staphylococcus aureus USA 300 at 1 to 4 times MIC incubated for 2 to 8 hrs by time kill assay; assay type: functional, organism-based; settings: time 2-8 hrs
Staphylococcus aureus [20] = experiment: Antibacterial activity against methicillin-resistant Staphylococcus aureus USA 300 (ARLG 1561) assessed as reduction in visible bacterial growth incubated for 18 to 20 hrs by CLSI based broth microdilution analysis; assay type: functional; settings: time 18-20 hrs
Staphylococcus aureus [21] = experiment: Inhibition of RNA synthesis in Staphylococcus aureus ATCC 25923 at 0.25 to 8 ug/ml by [5-3H]-uridine incorporation assay; assay type: functional, organism-based; settings: dose 0.25-8 µg/ml
Enterococcus faecalis [22] = experiment: Synergistic antibiofilm activity against vancomycin-resistant Enterococcus faecalis ATCC 51575 in TSB broth assessed as dispersal of glucose-induced biofilm by measuring fractional inhibitory concentration index preincubated with glucose for 48 hrs followed by compound addition and further incubated for 24 hrs in presence of Nitroxoline by crystal violet staining based checkerboard assay; assay type: functional
Enterococcus faecium [23] = experiment: Antibacterial activity against vancomycin-resistant Enterococcus faecium ATCC 700221 assessed as reduction in visible bacterial growth incubated for 18 to 20 hrs by CLSI based broth microdilution analysis; assay type: functional; settings: time 18-20 hrs
Erythrocyte = experiment: Hemolytic activity in sheep RBC at 10 times MIC incubated for 30 mins by spectrophotometry; assay type: toxicity, cell-based, Ovis aries; settings: 0.5 h
Enterococcus faecium [24] = experiment: Synergistic antibiofilm activity against vancomycin-resistant Enterococcus faecium ATCC 700221 in TSB broth assessed as dispersal of glucose-induced biofilm by measuring fractional inhibitory concentration index preincubated with glucose for 48 hrs followed by compound addition and further incubated for 24 hrs in presence of Bithionol by crystal violet staining based checkerboard assay; assay type: functional

## Oc1ccc([C@@H]2Nc3ccc(S(F)(F)(F)(F)F)cc3[C@H]3[C@@H]4CC[C@@H](C4)[C@H]32)cc1
Staphylococcus aureus [1]
  inhibition: Active
Enterococcus faecium [2]
  MBEC: 0.5 µg/mL
Staphylococcus aureus [3]
  Activity: 70%
Enterococcus faecalis [4]
  MBEC: 4 µg/mL
Enterococcus faecium [5]
  inhibition: Active
Staphylococcus aureus [6]
  MBEC: 1 µg/mL
Staphylococcus aureus [7]
  MBC: 2 µg/mL (≈ 4.79 µM)
  MIC: 2 µg/mL (≈ 4.79 µM)
Staphylococcus aureus [8]
  MBC: 2 µg/mL (≈ 4.79 µM)
  MIC: 1 µg/mL (≈ 2.4 µM)
Staphylococcus aureus [9]
  MBEC: 32 µg/mL
Staphylococcus aureus [10]
  MBC: 2 µg/mL (≈ 4.79 µM)
  MIC: 1 µg/mL (≈ 2.4 µM)
Staphylococcus aureus [11]
  MBEC: 4 µg/mL
Staphylococcus aureus [12]
  MBC: 2 µg/mL (≈ 4.79 µM)
  MIC: 1 µg/mL (≈ 2.4 µM)
Staphylococcus aureus [13]
  Activity: >80%
Staphylococcus aureus [14]
  fractional inhibitory concentration index (FICI): 0.28
Staphylococcus aureus [15]
  MBEC: 1 µg/mL
Enterococcus faecalis [16]
  MBEC: 4 µg/mL
Enterococcus faecium [17]
  MBEC: 4 µg/mL
Staphylococcus aureus [18]
  Activity: >80%
Cell membrane
  Activity: Dde
Staphylococcus aureus [19]
  Activity: Active
Staphylococcus aureus [20]
  MBC: 2 µg/mL (≈ 4.79 µM)
  MIC: 2 µg/mL (≈ 4.79 µM)
Staphylococcus aureus [21]
  inhibition: Active
Enterococcus faecalis [22]
  fractional inhibitory concentration index (FICI): 0.38
Enterococcus faecium [23]
  MBC: 2 µg/mL (≈ 4.79 µM)
  MIC: 2 µg/mL (≈ 4.79 µM)
Erythrocyte
  Activity: Non-Toxic
Enterococcus faecium [24]
  fractional inhibitory concentration index (FICI): 0.28
